Test results: ChEMBL document CHEMBL1201862, “PubChem BioAssay data set” (2004)
The source made the active and inactive calls.

How the values were obtained:
[1] = growth suppression of PTEN-null colon cells, dose response, cell-based, HCT116 PTEN knockout (AID 1047); assay type: functional;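 note: HCT116 colon tumor cells with PTEN knocked out; cells exposed to compound for 60 hours before readout; potency for loss of cell viability measured by luminescence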
[2] = growth suppression of beta-catenin-knockout colon cells, dose response, cell-based, HCT116, human colon tumor (AID 1045); assay type: functional;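 note: HCT116 colon tumor cells with beta catenin knocked out; cells exposed to compound for 60 hours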
[3] = biological target: T1, Polyadenylate-binding protein 1 (Homo sapiens, UniProt P11940); assay: PABP1 MLLE–PAM2 interaction inhibitors, dose response, miRNA deadenylation inhibitor project, biochemical, fluorescence polarization, Cy5-PAM2 peptide, secondary (AID 602260); assay type: functional; settings: read-out: IC50_Mean
T1 sequence (P11940 whole entry): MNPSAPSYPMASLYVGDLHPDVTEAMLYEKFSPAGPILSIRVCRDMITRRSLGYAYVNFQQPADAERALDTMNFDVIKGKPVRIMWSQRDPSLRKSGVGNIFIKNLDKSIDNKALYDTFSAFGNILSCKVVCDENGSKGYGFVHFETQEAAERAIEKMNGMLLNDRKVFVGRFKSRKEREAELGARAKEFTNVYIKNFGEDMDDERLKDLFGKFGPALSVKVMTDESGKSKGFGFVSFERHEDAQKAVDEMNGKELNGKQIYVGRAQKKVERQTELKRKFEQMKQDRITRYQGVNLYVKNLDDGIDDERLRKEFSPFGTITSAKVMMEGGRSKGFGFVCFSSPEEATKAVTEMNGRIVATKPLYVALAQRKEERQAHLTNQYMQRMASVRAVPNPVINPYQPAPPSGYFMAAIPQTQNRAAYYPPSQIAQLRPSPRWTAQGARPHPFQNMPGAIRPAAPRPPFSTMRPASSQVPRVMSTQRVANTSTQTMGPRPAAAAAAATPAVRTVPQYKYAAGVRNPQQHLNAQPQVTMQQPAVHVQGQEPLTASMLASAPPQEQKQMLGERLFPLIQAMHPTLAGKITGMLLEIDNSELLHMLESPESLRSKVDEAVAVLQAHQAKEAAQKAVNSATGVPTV

[4] = biological target: T1, Polyadenylate-binding protein 1; assay: PABP1 MLLE–PAM2 binding inhibitor potency, dose response, biochemical, fluorescence polarization, FITC-PAM2 peptide (AID 602259); assay type: functional; settings: read-out: IC50_Mean
[5] = NIH-3T3 fibroblast cytotoxicity, dose response, cytotoxicity control, cell-based, fluorescence, Alamar Blue, secondary assay (AID 2327); assay type: functional;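 note: NIH-3T3 mouse fibroblasts cultured with fluconazole at 8 µg/mL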
[6] = C. albicans growth with fluconazole, confirmation, fluorescence, retest (AID 2467); assay type: functional, cell-based
[7] = biological target: T2, Carboxy-terminal domain RNA polymerase II polypeptide A small phosphatase 1 (Homo sapiens, UniProt Q9GZU7); assay: inhibitors of CTDSP1, concentration-response testing, biochemical assay, absorbance-based, actives from ultra-high-throughput screening (AID 540297); assay type: functional
T2 sequence (Q9GZU7 whole entry): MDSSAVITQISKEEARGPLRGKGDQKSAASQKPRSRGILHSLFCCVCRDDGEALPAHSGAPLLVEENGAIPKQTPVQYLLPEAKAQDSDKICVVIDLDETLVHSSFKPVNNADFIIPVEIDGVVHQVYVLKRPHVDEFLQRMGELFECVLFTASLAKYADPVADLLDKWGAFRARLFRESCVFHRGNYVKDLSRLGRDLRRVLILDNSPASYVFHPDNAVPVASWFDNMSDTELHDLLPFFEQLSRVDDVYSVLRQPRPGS

[8] = biological target: T3, RNA-binding protein pos-1 (Caenorhabditis elegans, UniProt G5EF15); assay: inhibitors of POS-1/mex-3 RNA binding, dose response, biochemical, fluorescence polarization (AID 1964);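 note: purified POS-1 fused to maltose binding protein made in E. coli; potency of compounds blocking POS-1 binding to fluorescent RNA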
T3 sequence (G5EF15 whole entry): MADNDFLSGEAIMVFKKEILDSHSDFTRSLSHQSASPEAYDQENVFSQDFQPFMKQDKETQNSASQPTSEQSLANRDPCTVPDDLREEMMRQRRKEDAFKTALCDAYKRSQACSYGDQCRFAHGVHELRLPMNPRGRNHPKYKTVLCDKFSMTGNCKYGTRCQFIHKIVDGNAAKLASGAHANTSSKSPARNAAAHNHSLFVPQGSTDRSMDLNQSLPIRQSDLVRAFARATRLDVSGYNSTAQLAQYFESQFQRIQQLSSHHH

[9] = biological target: T4, Zinc finger protein mex-5 (Caenorhabditis elegans, UniProt Q9XUB2); assay: MEX-5/TCR-2 RNA interaction inhibitors, dose response, biochemical, C. elegans, fluorescence polarization (AID 1960)
T4 sequence (Q9XUB2 whole entry): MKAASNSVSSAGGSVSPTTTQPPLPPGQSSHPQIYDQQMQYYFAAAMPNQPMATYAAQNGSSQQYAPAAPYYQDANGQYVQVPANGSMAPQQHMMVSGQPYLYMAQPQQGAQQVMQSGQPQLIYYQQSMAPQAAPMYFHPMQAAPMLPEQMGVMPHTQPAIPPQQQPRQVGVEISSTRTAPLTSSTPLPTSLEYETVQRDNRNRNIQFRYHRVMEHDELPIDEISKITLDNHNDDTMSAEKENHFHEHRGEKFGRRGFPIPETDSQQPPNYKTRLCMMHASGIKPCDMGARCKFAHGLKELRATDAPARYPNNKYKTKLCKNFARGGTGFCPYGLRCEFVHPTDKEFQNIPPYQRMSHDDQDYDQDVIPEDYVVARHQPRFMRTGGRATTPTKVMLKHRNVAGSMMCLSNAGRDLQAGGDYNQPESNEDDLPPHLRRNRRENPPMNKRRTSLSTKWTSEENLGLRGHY

[10] = biological target: Large T antigen (Simian virus 40, UniProt P03070); assay type: functional, Betapolyomavirus macacae;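 note: Confirmatory-stage PubChem screen for compounds that inhibit SV40 T antigen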
Large T antigen, sequence (P03070 whole entry): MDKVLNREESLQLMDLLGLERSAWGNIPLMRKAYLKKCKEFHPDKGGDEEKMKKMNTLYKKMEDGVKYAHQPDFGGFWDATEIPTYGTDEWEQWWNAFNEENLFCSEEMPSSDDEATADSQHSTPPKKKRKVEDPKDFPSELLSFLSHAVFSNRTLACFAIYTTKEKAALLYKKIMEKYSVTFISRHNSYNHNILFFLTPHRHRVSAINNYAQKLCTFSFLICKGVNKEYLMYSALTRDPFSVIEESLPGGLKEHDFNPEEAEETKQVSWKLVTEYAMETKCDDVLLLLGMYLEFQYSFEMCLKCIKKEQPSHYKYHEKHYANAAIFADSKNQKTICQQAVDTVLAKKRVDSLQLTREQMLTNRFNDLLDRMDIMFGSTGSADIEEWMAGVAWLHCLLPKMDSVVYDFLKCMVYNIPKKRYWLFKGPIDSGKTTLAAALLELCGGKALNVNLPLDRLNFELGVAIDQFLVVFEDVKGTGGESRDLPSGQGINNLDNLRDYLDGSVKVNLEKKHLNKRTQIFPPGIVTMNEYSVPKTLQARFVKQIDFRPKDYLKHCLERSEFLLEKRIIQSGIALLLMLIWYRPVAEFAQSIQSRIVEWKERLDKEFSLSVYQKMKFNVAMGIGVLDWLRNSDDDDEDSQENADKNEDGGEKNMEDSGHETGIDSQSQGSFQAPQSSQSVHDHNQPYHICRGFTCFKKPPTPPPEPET

[11] = biological target: T5, Replicative DNA helicase DnaB (Mycobacterium tuberculosis, UniProt P9WMR3); assay: DnaB intein splicing inhibitors, dose response, biochemical, cell-free fluorescence (AID 449749); assay type: functional
T5 sequence (P9WMR3 whole entry): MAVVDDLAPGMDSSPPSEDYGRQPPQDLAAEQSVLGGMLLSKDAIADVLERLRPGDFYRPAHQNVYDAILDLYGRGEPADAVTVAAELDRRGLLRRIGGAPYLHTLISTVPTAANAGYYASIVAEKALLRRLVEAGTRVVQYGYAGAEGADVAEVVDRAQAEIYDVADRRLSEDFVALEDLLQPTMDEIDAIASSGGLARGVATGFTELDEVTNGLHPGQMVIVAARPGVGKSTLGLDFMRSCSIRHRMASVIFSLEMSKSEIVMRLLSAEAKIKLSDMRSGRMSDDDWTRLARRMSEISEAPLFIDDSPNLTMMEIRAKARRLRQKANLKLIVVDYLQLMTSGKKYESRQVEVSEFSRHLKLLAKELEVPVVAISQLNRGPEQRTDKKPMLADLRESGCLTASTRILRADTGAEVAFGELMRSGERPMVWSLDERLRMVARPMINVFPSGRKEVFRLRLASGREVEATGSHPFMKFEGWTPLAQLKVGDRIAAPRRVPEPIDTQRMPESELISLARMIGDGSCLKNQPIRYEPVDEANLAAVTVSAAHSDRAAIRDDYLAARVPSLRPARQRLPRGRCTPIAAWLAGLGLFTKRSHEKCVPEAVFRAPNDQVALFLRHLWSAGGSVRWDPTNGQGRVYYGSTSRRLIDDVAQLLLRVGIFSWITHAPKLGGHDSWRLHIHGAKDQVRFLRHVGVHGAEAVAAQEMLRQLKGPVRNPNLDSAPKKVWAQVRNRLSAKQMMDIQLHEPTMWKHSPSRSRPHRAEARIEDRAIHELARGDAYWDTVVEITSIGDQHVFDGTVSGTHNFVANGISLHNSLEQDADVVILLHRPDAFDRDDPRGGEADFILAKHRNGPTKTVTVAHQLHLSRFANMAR

[12] = biological target: T6, Protein RecA (Mycobacterium tuberculosis, UniProt P9WHJ3); assay: Fluorescence Cell-Free Homogeneous Dose Retest to Identify Inhibitors of RecA-Intein Splicing Activity. [Related pubchem assays (depositor defined):AID2097, AID2223, AID489010, AID492950]; assay type: functional
T6 sequence (P9WHJ3 whole entry): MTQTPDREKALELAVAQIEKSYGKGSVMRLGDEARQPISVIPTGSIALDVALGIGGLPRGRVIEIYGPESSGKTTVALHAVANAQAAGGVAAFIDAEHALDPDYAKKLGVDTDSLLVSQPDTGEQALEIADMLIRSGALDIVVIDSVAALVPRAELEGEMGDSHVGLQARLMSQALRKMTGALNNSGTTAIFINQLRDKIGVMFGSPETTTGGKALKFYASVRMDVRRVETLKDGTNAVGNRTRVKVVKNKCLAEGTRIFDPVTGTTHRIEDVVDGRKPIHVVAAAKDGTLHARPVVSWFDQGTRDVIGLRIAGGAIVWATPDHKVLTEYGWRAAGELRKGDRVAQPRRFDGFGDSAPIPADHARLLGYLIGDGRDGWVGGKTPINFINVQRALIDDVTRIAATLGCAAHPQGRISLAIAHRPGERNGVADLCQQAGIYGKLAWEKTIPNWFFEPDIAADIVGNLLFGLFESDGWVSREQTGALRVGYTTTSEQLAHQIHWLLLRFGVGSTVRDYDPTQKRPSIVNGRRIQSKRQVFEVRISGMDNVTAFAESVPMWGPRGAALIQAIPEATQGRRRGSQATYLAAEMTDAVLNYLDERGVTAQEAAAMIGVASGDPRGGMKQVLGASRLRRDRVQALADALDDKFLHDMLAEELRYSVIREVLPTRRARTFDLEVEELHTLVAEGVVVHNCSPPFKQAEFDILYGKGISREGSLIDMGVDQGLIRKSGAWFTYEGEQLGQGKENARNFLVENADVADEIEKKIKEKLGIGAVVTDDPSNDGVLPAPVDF

[13] = biological target: Luciferin 4-monooxygenase (Photinus pyralis, UniProt P08659); assay: firefly luciferase enzyme inhibitors, dose response, biochemical, luminescence (AID 1891)
Luciferin 4-monooxygenase, sequence (P08659 whole entry): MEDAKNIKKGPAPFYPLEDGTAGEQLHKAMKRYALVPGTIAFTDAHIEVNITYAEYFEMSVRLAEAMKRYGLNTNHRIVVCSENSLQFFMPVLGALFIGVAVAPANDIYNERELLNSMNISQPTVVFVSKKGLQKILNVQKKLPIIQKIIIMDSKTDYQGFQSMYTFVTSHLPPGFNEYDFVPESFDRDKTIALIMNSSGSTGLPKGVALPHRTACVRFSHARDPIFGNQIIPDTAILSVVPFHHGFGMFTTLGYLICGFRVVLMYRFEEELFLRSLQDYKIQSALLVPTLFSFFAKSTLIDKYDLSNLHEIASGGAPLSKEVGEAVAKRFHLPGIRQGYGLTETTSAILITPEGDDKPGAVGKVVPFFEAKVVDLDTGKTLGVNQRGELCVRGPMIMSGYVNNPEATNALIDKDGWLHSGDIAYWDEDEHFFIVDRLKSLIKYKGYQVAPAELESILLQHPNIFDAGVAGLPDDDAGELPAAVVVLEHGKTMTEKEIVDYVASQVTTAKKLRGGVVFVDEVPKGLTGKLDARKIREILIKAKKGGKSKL

[14] = Luminescence Cell-Based Dose Confirmation HTS to Identify Inhibitors of Platelet Dense Granule Release. [Related pubchem assays: 1663 (Primary HTS), 1678 (Summary of Project)]; assay type: functional
[15] = intracellular Trypanosoma cruzi inhibitors in host cells – cell-based, plate reader, cherry-pick samples, set 3, dose response (AID 651818); assay type: functional;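 note: compounds incubated with infected cells for about four days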
[16] = biological target: Paired box protein Pax-8 (Homo sapiens, UniProt Q06710); assay: inhibitors of PAX8-driven TPO luciferase reporter, dose response, RMG-I cells, cherry-pick (AID 687027); assay type: functional, cell-based;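 note: luciferase reporter driven by Pax8 target thyroperoxidase promoter measured by SteadyGlo luminescence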
Paired box protein Pax-8, sequence (Q06710 whole entry): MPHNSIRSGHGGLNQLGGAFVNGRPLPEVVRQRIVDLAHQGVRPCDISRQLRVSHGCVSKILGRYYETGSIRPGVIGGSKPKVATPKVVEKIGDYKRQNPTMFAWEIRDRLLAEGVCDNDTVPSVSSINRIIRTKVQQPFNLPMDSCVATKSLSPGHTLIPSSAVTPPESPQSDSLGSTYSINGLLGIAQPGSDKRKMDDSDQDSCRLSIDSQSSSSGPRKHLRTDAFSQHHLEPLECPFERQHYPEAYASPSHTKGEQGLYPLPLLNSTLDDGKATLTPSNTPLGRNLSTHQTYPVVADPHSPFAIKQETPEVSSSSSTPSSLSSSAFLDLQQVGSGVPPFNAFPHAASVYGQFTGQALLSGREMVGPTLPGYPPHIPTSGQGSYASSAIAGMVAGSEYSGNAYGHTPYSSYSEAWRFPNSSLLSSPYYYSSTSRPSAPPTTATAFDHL

COc1cccc(C(=O)Oc2ccccc2/C=C\C(=O)c2cc3ccccc3o2)c1
EC50 [1]: 7.8 µM (active)
EC50 [2]: 6.66 µM (active)

CC(=O)C(Sc1nccc(-c2cccs2)n1)C(C)=O
IC50 [3]: > 66 µM (inactive)
IC50 [4]: > 66 µM (inactive)

Oc1[nH]c2c(Cl)cc(Cl)cc2c1N=NC(S)=NCC1CCCO1 (configuration not stated)
EC50 [5]: 19.8 µM (inconclusive)
EC50 [6]: 3.03 µM (active)
EC50 [1]: 1.67 µM (active)
EC50 [2]: 1.22 µM (active)

Cc1ccc(SC2CC(=O)N(c3ccc4c(c3)OCCO4)C2=O)cc1 (configuration not stated)
IC50 [3]: > 66 µM (inactive)
IC50 [4]: > 66 µM (inactive)

C[n+]1cnc(-c2ccccc2)cc1-c1ccccc1
IC50 [7]: 3.35 µM (active)

Oc1[nH]c(S)nc2nc(S)nc1-2
EC50 [8]: 32 µM (active)
EC50 [9]: 8.3 µM (active)
IC50 [10]: 27.2 µM (active)

O=[N+]([O-])c1ccc(-c2nc(=S)c3c(o2)CCCC3)cc1
IC50 [3]: > 66 µM (inactive)
IC50 [4]: > 66 µM (inactive)

CCOc1nc(-c2ccc(OC)cc2)ccc1-c1noc(-c2cc(OC)c(OC)c(OC)c2)n1
EC50 [1]: 21.1 µM (active)
EC50 [2]: 25.5 µM (active)

O=C(COC(=O)/C=C/c1ccco1)Nc1ncc(Cl)cc1Cl
IC50 [7]: 17 µM (active)

CC(=O)Oc1cc2c(C(=O)NCCCN3CCOCC3)c(C)oc2c2ccccc12
EC50 [1]: 3.79 µM (active)
EC50 [2]: 4.45 µM (active)

CCN(CC)C(=O)CSc1nnc2nnc3cc(Cl)ccc3n12
EC50 [8]: 23.2 µM (active)
EC50 [9]: 18.5 µM (active)
AC50 [11]: > 380 µM (inactive)
EC50 [12]: 0.499 µM (active)
IC50 [3]: > 66 µM (inactive)
IC50 [4]: 34.4 µM (inactive)

C=CCNC(=O)COC(=O)c1c2c(nc3ccccc13)CCC2
IC50 [7]: 7.39 µM (active)

Cc1ccc(NC(=O)CC2SC(=O)N(c3ccccc3)C2=O)cc1 (configuration not stated)
EC50 [13]: > 112 µM (not active)
EC50 [14]: 109 µM (active)
IC50 [3]: > 66 µM (inactive)
IC50 [4]: > 66 µM (inactive)

COc1ccc(N2C(=O)/C(=C/c3ccc(C)o3)C(=O)NC2=S)c(OC)c1
EC50 [8]: > 300 µM (not active)
EC50 [9]: 41.3 µM (active)
IC50 [10]: 34.3 µM (active)

O=C(CSc1oc(-c2ccc(F)cc2)nc1S(=O)(=O)c1ccc(F)cc1)NCC1CCCO1 (configuration not stated)
EC50 [1]: 10.2 µM (active)
EC50 [2]: 13.6 µM (active)

Cc1cc2cc(CNC(=O)c3cccs3)ccc2n1C
IC50 [3]: > 66 µM (inactive)
IC50 [4]: > 66 µM (inactive)

Cc1cccc(C(=O)OCC(=O)c2ccc(CC(=O)N3CCOCC3)s2)c1C
IC50 [7]: 6.46 µM (active)

C[C@H](CO)N1C[C@H](C)[C@@H](CN(C)Cc2ccc(Oc3ccccc3)cc2)Oc2ccc(N(C)C)cc2C1=O
AC50 [15]: 2.27 µM (active)

C[C@H]1CN([C@@H](C)CO)C(=O)c2cccc(NC(=O)CCCCCC(=O)Nc3ccccc3N)c2O[C@@H]1CN(C)CC1CCCCC1
AC50 [15]: 1.95 µM (active)

C[C@H](CO)N1C[C@H](C)[C@H](CN(C)Cc2ccc(C(=O)Nc3ccccc3N)cc2)Oc2ccc(NS(=O)(=O)c3ccc(F)cc3)cc2CC1=O
AC50 [15]: 2.64 µM (active)

Cc1ccc(S(=O)(=O)N(C)C[C@H]2Oc3ccc(NC(=O)Nc4cccc5ccccc45)cc3CC(=O)N([C@@H](C)CO)C[C@H]2C)cc1
AC50 [15]: 4.81 µM (active)

C[C@@H]1CN([C@@H](C)CO)C(=O)c2cccc(NC(=O)c3ccncc3)c2O[C@@H]1CN(C)Cc1ccc(Cl)c(Cl)c1
AC50 [15]: 1.31 µM (active)

COc1ccc(NC(=O)Nc2ccc3c(c2)CC(=O)N([C@H](C)CO)C[C@@H](C)[C@@H](CN(C)Cc2ccc(Oc4ccccc4)cc2)O3)cc1
AC50 [15]: 2.09 µM (active)
AC50 [16]: 23.5 µM (active)

COc1ccc(S(=O)(=O)Nc2ccc3c(c2)C(=O)N([C@H](C)CO)C[C@H](C)[C@H](CN(C)Cc2ccc(C(F)(F)F)cc2)OCCCC[C@@H](C)O3)cc1
AC50 [15]: 3.2 µM (active)

C[C@@H]1CN([C@@H](C)CO)C(=O)c2cccc(NC(=O)Nc3ccc(C(F)(F)F)cc3)c2O[C@@H]1CN(C)S(=O)(=O)c1ccc(Cl)cc1
AC50 [15]: 2.79 µM (active)

C[C@@H]1CN([C@H](C)CO)C(=O)Cc2cc(NC(=O)NC3CCCCC3)ccc2O[C@H]1CN(C)Cc1ccc(C(=O)Nc2ccccc2N)cc1
AC50 [15]: 5.26 µM (active)

C[C@@H]1CCCCO[C@H](CN(C)Cc2ccc(C(F)(F)F)cc2)[C@@H](C)CN([C@H](C)CO)C(=O)c2cc(NC(=O)Nc3ccc(C(F)(F)F)cc3)ccc2O1
AC50 [15]: 3.15 µM (active)

O=C(Cc1nnc(NC(=O)c2ccccc2)s1)N/N=C/c1ccc(O)cc1
IC50 [7]: 8.5 µM (active)
